Measured values from patent US11964956B2, “Cannabinergic compounds and uses thereof” (Northeastern University, priority 2012, dated 2024).
Like-named read-outs stand apart in the source and are kept apart here.

Tests used:
mCB2 = target: T1, mCB2 (Mus musculus, UniProt P47936); test: mCB2 competition-equilibrium binding with [3H]CP-55,940, HEK293 membranes
T1 construct: expressed in transfected cells; host or cells: HEK293
Description: (§1) HEK293 cells expressing hCB1 or hCB2 or mCB2 receptor are used for membrane preparations according to Abadji et al. The resulting pellet is resuspended in 10 mM Tris-chloride, pH 7.4, with 5 mM MgCl2 and 2 mM EDTA (TME), rapidly frozen in liquid nitrogen and stored at −80° C. for no longer than two months. Protein content is assayed by using the Bio-Rad protein assay according to the manufacturer's protocol.
(§2) All the cannabinoids discussed in this invention are tested for their ability to bind to CB 1 and CB2 receptors using membranes from rat brain or HEK293 cells expressing either mCB2 or hCB2, respectively via competition-equilibrium binding using [^3H]CP-55,940. Results are analyzed using nonlinear regression to determine ligand IC50 (Prism by GraphPad Software, Inc.), and Ki values are calculated from the IC50. IC50 and Ki values are determined from at least three independent experiments.
(§3) Some disclosed compounds were tested for CB1 and CB2 receptor binding affinity, which can be represented by a Ki value. The Ki value is the affinity constant and describes the affinity of the compound for the receptor. […] A detailed description of the methods used to test binding affinity of compounds is given in US 2007/0135388 and in Papahatjis, et al., J. Med. Chem. (2007) 4048, the content of each of which is hereby incorporated by reference.

rCB1 [1] = target: T2, rCB1 (Rattus norvegicus, UniProt P20272); test: cAMP assay, rCB1; assay type: cell-based
Description: (§4) Functional characterization of some of the disclosed compounds was performed by using the cyclic adenosine monophosphate (cAMP) assay. The functional potency of the compound in the cAMP assay is represented by the EC50 value. The lower the EC50 value, the higher the functional potency. A detailed description of the cyclic adenosine monophosphate (cAMP) assay is given in Nikas et al. J. Med. Chem. (2010) 6996, the content of which is incorporated herein by reference. Table 10 lists the EC50 values of certain compounds of Formula (Je) in the cAMP assay.

hCB2 [2] = target: T3, hCB2 (Homo sapiens, UniProt P34972); test: cAMP assay, hCB2; assay type: cell-based; conditions: for Emax: cAMP assay
T3 construct: expressed in transfected cells; host or cells: HEK293
Description: as §4

rats = test: Hypothermia assay (FIG. 3A); assay type: in vivo, rat; conditions: change in body temperature vs time after injection, compared to AM10843
rCB1 [3] = target: T2, rCB1; test: rCB1 competition-equilibrium binding with [3H]CP-55,940, rat brain membranes; design: Frozen rat brains (CB1 source) are obtained from Pel-Freeze Biologicals; tissue Pel-Freeze Biologicals (Rogers, AK); host or cells: rat brain membranes
Description: Frozen rat brains (CB1 source) are obtained from Pel-Freeze Biologicals (Rogers, AK) and stored at −80° C. until use. Membranes are prepared according to the method described by Dodd et al. and used in our laboratory as reported.
as §2, §3

hCB2 [4] = target: T3, hCB2; test: hCB2 competition-equilibrium binding with [3H]CP-55,940, HEK293 membranes
Description: as §1, §2, §3

mice = test: Analgesia assay, tail flick / tail immersion (FIG. 3B); assay type: in vivo, mouse; conditions: iso-active doses, compared with nabilone (AM10806) and AM10843
Description: Some of the disclosed compounds were tested in vivo using two well defined rodent assays for cannabinergic activity, the analgesia and the hypothermia assays. The analgesia assay (tail immersion test) determines the ability of a test compound to activate cannabinergic signaling, through modulation of cannabinoid receptors, and thereby reduce nociceptive pain. The hypothermia test determines the ability of a test compound to act as a central CB1 agonist and decrease the body temperature. […] The details of both assays are described below.
Analgesia Assay. C57BL6/J mice (Jackson Laboratories, Bar Harbor Maine) were single housed at least 1 h before start of experiment. Food and water were removed immediately before the first injection.
Route of administration=i.p. Volume=1 mL/100 g body weight.
Tail withdrawal test: 52° C. water bath (use bags). Bag was made of stapled surgery sheets to form a small pocket the size of a mouse. […] The tip of the mouse's tail was dipped into the warm water, with 1 cm submerged.

[5] = background statement; cited from earlier work

T2 sequence (P20272 whole entry): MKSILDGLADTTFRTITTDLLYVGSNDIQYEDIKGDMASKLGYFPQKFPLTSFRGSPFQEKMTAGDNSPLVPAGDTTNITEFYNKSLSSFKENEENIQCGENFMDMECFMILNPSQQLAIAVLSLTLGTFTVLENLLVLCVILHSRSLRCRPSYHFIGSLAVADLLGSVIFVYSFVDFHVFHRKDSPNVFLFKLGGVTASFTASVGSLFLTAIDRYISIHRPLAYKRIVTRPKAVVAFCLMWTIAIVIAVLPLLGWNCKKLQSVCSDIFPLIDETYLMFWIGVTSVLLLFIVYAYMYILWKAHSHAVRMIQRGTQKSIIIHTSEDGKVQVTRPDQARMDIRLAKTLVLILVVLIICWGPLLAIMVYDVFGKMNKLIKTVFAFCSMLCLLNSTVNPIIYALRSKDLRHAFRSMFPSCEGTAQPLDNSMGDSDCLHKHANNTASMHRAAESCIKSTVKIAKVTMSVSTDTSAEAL
T3 sequence (P34972 whole entry): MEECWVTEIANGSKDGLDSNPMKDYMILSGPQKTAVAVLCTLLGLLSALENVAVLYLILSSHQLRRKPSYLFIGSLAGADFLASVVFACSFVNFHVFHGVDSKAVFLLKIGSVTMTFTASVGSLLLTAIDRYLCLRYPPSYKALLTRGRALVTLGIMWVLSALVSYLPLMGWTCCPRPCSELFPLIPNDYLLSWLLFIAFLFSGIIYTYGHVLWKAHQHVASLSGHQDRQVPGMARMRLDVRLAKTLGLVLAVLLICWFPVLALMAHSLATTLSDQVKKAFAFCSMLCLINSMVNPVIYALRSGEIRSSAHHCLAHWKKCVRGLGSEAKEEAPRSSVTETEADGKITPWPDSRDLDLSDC
T1 sequence (P47936 whole entry): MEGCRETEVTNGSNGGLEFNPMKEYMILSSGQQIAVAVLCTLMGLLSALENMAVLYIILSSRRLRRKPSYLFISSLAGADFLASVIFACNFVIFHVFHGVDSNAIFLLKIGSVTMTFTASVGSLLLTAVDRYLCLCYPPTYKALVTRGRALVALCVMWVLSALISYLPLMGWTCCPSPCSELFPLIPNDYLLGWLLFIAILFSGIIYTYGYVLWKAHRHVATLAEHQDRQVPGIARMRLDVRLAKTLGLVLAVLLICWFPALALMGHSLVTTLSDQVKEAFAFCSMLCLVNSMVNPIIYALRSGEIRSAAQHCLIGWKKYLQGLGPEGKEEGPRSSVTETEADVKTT

Row | Structure (SMILES) | Ki (mCB2) [nM] | EC50 (rCB1 [1]) [nM] | Emax (rCB1 [1]; cAMP assay) [%] | EC50 (hCB2 [2]) [nM] | Emax (hCB2 [2]) [%] | duration of hypothermic effect (rats) | Ki (rCB1 [3]) [nM] | Ki (hCB2 [4]) [nM] | duration of analgesic effect (tail flick) (mice) | Ki (mCB2; Table 9, Formula (Ie), read-out: mCB2 (Ki)) [nM] | EC50 (rCB1 [1]; cAMP assay, read-out: rCB1 EC50) [nM] | Ki (rCB1 [3]; Table 9, Formula (Ie), read-out: rCB1 (Ki)) [nM] | Ki (hCB2 [4]; Table 9, Formula (Ie), read-out: hCB2 (Ki)) [nM] | slow and erratic absorption [5] [h]
1 | CC(C)(C(=O)OCCCC#N)c1cc(O)c2c(c1)OC(C)(C)[C@@H]1CCC(=O)C[C@@H]21 [8 AM10811, 3-Cyanopropyl-2-((6aR,10aR)-1-hydroxy-6,6-dimethyl-9-oxo-6a,7,8,9,10,10a-hexahydro-6H-benzo[c]chromen-3-yl)-2-methylpropanoate] | 1.1 ± 0.4 | 0.4 ± 0.06 | 87 | 0.1 ± 0.03 | 77 | shorter acting | 0.7 ± 0.03 | 6.2 ± 2.7 | – | – | – | – | – | –
2 | CCCOC(=O)CC(C)(C)c1cc(O)c2c(c1)OC(C)(C)[C@@H]1CCC(=O)C[C@@H]21 [18 AM10819, Propyl-3-((6aR,10aR)-1-hydroxy-6,6-dimethyl-9-oxo-6a,7,8,9,10,10a-hexahydro-6H-benzo[c]chromen-3-yl)-3-methylbutanoate] | 26 ± 3.6 | 15.9 ± 3.6 | 90 | 0.2 ± 0.09 | 82 | – | 11 ± 1.4 | 90 ± 11.3 | shorter acting | – | – | – | – | –
3 | CCCCOC(=O)C(C)(C)c1cc(O)c2c(c1)OC(C)(C)C1CCC(=O)CC21 (centres unmarked) [AM 10843] | – | 1 ± 0.3 | 83 | 1.1 ± 2.3 | 80 | – | – | – | – | – | – | – | – | –
4 | CC(C)(C(=O)OCCCN=[N+]=[N-])c1cc(O)c2c(c1)OC(C)(C)[C@@H]1CCC(=O)C[C@@H]21 [Compound 9, 3-Azidopropyl-2-((6aR,10aR)-1-hydroxy-6,6-dimethyl-9-oxo-6a,7,8,9,10,10a-hexahydro-6H-benzo[c]chromen-3-yl)-2-methylpropanoate] | 4 | 0.2 | 52 | 2.1 | 87 | – | 0.13 | 3.1 | – | – | – | – | – | –
5 | CCCCCOC(=O)C(C)(C)c1cc(O)c2c(c1)OC(C)(C)[C@@H]1CCC(=O)C[C@@H]21 [Compound 34c, Pentyl 2-((6aR,10aR)-1-hydroxy-6,6-dimethyl-9-oxo-6a,7,8,9,10,10a-hexahydro-6H-benzo[c]chromen-3-yl)-2-methylpropanoate] | 6.1 ± 1.1 | 8.9 ± 2.3 | 94 | 8.4 ± 1.8 | 46 | – | 0.4 ± 0.01 | 11.5 ± 1.6 | – | – | – | – | – | –
6 | CC(C)(C(=O)OCCCN1CCOCC1)c1cc(O)c2c(c1)OC(C)(C)[C@@H]1CCC(=O)C[C@@H]21 [Compound 34g, 3-Morpholinopropyl 2-((6aR,10aR)-1-hydroxy-6,6-dimethyl-9-oxo-6a,7,8,9,10,10a-hexahydro-6H-benzo[c]chromen-3-yl)-2-methylpropanoate] | – | – | 78 | – | – | – | – | – | – | 91.7 ± 20.4 | 4.2 | 17 ± 3.5 | 18.2 ± 4.1 | –
7 | CCCCSC(=O)C(C)(C)c1cc(O)c2c(c1)OC(C)(C)[C@@H]1CCC(=O)C[C@@H]21 [Compound 34h, S-Butyl 2-((6aR,10aR)-1-hydroxy-6,6-dimethyl-9-oxo-6a,7,8,9,10,10a-hexahydro-6H-benzo[c]chromen-3-yl)-2-methylpropanethioate] | 5 ± 1.4 | 0.2 ± 0.04 | 89 | 83.4 ± 4.7 | 72 | – | 0.7 ± 0.03 | 16 ± 2.4 | – | – | – | – | – | –
8 | CCCCCc1cc(O)c2c(c1)OC(C)(C)[C@@H]1CCC(C)=C[C@@H]21 [Dronabinol] | – | – | – | – | – | – | – | – | – | – | – | – | – | 2 to 6
